The results in this text go back to patent US10034886B2, “GLP-1 receptor modulators” (Celgene International II SÀRL, priority 2014, dated 2018).

Broadly, the EC50 is the concentration at which the effect is half-maximal.

Some results are limits rather than exact numbers.

T1 sequence (P43220 24-463): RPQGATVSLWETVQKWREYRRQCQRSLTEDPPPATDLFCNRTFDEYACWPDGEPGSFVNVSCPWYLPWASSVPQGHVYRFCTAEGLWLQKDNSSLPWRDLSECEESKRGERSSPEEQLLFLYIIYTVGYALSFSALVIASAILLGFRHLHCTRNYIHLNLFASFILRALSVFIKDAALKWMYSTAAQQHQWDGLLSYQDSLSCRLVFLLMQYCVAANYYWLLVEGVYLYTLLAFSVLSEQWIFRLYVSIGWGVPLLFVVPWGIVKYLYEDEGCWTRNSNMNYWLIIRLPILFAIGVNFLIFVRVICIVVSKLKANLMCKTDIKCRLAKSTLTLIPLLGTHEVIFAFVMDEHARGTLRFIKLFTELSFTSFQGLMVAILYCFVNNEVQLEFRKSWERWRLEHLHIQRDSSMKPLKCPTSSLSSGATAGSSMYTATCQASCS
T1 sequence (P01275 100-127 partner limits assumed): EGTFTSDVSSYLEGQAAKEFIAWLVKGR

The assay concerns the target T1, GLP-1R (Homo sapiens, UniProt P43220).
T1 construct: host or cells: GLP-1R CRE-bla CHO-K1 cells
As to the kind of experiment: EC20 GLP-1(9-36) PAM cAMP assay: dose response of compound in the presence of fixed concentration of GLP-1(9-36). The format is cell-based. The settings on record: dose response of compound in presence of fixed concentration of GLP-1(9-36), GLP-1R CRE-bla CHO-K1 cells, read-out: EC20 GLP-1(9-36) PAM EC50. The method, boiled down:
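Positive allosteric modulation read as cAMP accumulation: compound titrations (12 points) combined with an EC20 level of GLP-1(9-36) on CHO-K1 GLP-1R CRE-bla cells, IBMX present, 30 min, 37 °C, pH 7.4 buffer. Luminescence converted to cAMP via standards; non-linear fit gave EC50 and Emax.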
In general terms: Changes in cAMP serve as a functional read-out for many G protein-coupled receptors.
With `CCCCCCCOc1ccc(-c2cnc(-c3ccc(C[C@H](NC(=O)c4ccc(C(C)(C)C)s4)C(=O)NC(C(=O)O)C(O)c4cccc(Cl)c4)cc3)nc2)cc1` (some centres unmarked) [Compound 902], the EC50 lay in the range of 2500 to 5000 nM. Then `CCCCCCCOc1ccc(-c2cnc(-c3ccc(C[C@H](NC(=O)c4ccc(C(C)(C)C)s4)C(=O)NC(C(=O)O)C(O)c4cscn4)cc3)nc2)cc1` (some centres unmarked) [Compound 903], with 5000 to 10000 nM. Then `CCCCCCCOc1ccc(-c2cnc(-c3ccc(C[C@H](NC(=O)c4ccc(C(C)(C)C)s4)C(=O)NC(C(=O)O)C(O)c4cncnc4)cc3)nc2)cc1` (some centres unmarked) [Compound 904], with 2500 to 5000 nM; and `CCCCCCCOc1ccc(-c2cnc(-c3ccc(C[C@H](NC(=O)c4ccc(C(C)(C)C)s4)C(=O)NC(C(=O)O)C(O)c4ccc(Cl)c(Cl)c4)cc3)nc2)cc1` (some centres unmarked) [Compound 905], with 5000 to 10000 nM; and `CCCCCCCOc1ccc(-c2cnc(-c3ccc(C[C@H](NC(=O)c4ccc(C(C)(C)C)s4)C(=O)NC(C(=O)O)C(O)c4cn(C)cn4)cc3)nc2)cc1` (some centres unmarked) [Compound 906], with 2500 to 5000 nM.

In the case of `CCCCCCCOc1ccc(-c2cnc(-c3ccc(C[C@H](NC(=O)c4ccc(C(C)(C)C)s4)C(=O)NC(C(=O)O)C(O)c4cccnc4)cc3)nc2)cc1` (some centres unmarked) [Compound 907], the 50% effective concentration (EC50) lay within 800 to 2500 nM. `CCCCCCCOc1ccc(-c2cnc(-c3ccc(C[C@H](NC(=O)c4ccc(C(C)(C)C)s4)C(=O)NC(C(=O)O)C(O)C4CC4)cc3)nc2)cc1` (some centres unmarked) [Compound 908]: the EC50 lay within 800 to 2500 nM.

Turning to `CCCCCCCOc1ccc(-c2cnc(-c3ccc(C[C@H](NC(=O)c4ccc(C(C)(C)C)s4)C(=O)N[C@H](C(=O)O)[C@@H](C)c4ccccc4)cc3)nc2)cc1` [Compound 909], the EC50 lay in the range of 2500 to 5000 nM. Consider `CCCCCCCOc1ccc(-c2cnc(-c3ccc(C[C@H](NC(=O)c4ccc(C(C)(C)C)s4)C(=O)N[C@@H](C(=O)O)[C@H](C)c4ccccc4)cc3)nc2)cc1` [Compound 910], for which the EC50 fell in the range of 800 to 2500 nM. Then `CCCCCCCOc1ccc(-c2cnc(-c3ccc(C[C@H](NC(=O)c4ccc(C(C)(C)C)s4)C(=O)NC(C(=O)O)C(O)c4ccc(C#N)cc4)cc3)nc2)cc1` (some centres unmarked) [Compound 911], with 800 to 2500 nM. As to `CCCCCCCOc1ccc(-c2cnc(-c3ccc(C[C@H](NC(=O)c4ccc(C(C)(C)C)s4)C(=O)NC(C(=O)O)C(O)c4cc(C)no4)cc3)nc2)cc1` (some centres unmarked) [Compound 912], the EC50 is < 800 nM. Take `CCCCCCCOc1ccc(-c2cnc(-c3ccc(C[C@H](NC(=O)c4ccc(C(C)(C)C)s4)C(=O)NC(C(=O)O)C(O)c4ncccn4)cc3)nc2)cc1` (some centres unmarked) [Compound 913]: the EC50 was < 800 nM. On to `CCCCCCCOc1ccc(-c2cnc(-c3ccc(C[C@H](NC(=O)c4ccc(C(C)(C)C)s4)C(=O)NC(C(=O)O)C(O)C4CCCCC4)cc3)nc2)cc1` (some centres unmarked) [Compound 914], for which the EC50 lay in the range of 2500 to 5000 nM. The same measure for `CCCCCCCOc1ccc(-c2cnc(-c3ccc(C[C@H](NC(=O)c4ccc(C(C)(C)C)s4)C(=O)NC(C(=O)O)C(O)c4cccnn4)cc3)nc2)cc1` (some centres unmarked) [Compound 915]: 800 to 2500 nM; for `CCCCCCCOc1ccc(-c2cnc(-c3ccc(C[C@H](NC(=O)c4ccc(C(C)(C)C)s4)C(=O)NC(C(=O)O)C(O)C4CCCO4)cc3)nc2)cc1` (some centres unmarked) [Compound 916]: 800 to 2500 nM; for `CCCCCCCOc1ccc(-c2cnc(-c3ccc(C[C@H](NC(=O)c4ccc(C(C)(C)C)s4)C(=O)NC(C(=O)O)C(O)c4cnccn4)cc3)nc2)cc1` (some centres unmarked) [Compound 917]: 800 to 2500 nM. Then `CCCCCCCOc1ccc(-c2cnc(-c3ccc(C[C@H](NC(=O)c4ccc(C(C)(C)C)s4)C(=O)NC(C(=O)O)C(O)C(C)(C)C)cc3)nc2)cc1` (some centres unmarked) [Compound 918], with 5000 to 10000 nM. Turning to `CCC(CC)Oc1ccc(-c2cnc(-c3ccc(C[C@H](NC(=O)c4ccc(C(C)(C)C)s4)C(=O)N4CC(C(=O)O)C4)cc3)nc2)cc1` [Compound 919], the EC50 lay in the range of 5000 to 10000 nM.

Turning to `CC(C)(C)c1ccc(C(=O)N[C@@H](Cc2ccc(-c3ncc(-c4ccc(OCCC5CCCC5)cc4)cn3)cc2)C(=O)N2CC(C(=O)O)C2)s1` [Compound 920], the EC50 lay in the range of 800 to 2500 nM. Then `CC(C)(C)c1ccc(C(=O)N[C@@H](Cc2ccc(-c3ncc(-c4ccc(OC5CCCCC5)cc4)cn3)cc2)C(=O)N2CC(C(=O)O)C2)s1` [Compound 921], with 5000 to 10000 nM.

On to `CC(C)(C)c1ccc(C(=O)N[C@@H](Cc2ccc(-c3ncc(-c4ccc(OCC5CCCC5)cc4)cn3)cc2)C(=O)N2CC(C(=O)O)C2)s1` [Compound 922], for which the EC50 is 5000 to 10000 nM. As to `CC(C)CCCCOc1ccc(-c2cnc(-c3ccc(C[C@H](NC(=O)c4ccc(C(C)(C)C)s4)C(=O)NC(C(=O)O)C(O)c4ccccc4)cc3)nc2)cc1` (some centres unmarked) [Compound 923], the EC50 is 800 to 2500 nM. The same measure for `CC(C)CCCOc1ccc(-c2cnc(-c3ccc(C[C@H](NC(=O)c4ccc(C(C)(C)C)s4)C(=O)NC(C(=O)O)C(O)c4ccccc4)cc3)nc2)cc1` (some centres unmarked) [Compound 924]: 2500 to 5000 nM; for `CCCCCOc1ccc(-c2cnc(-c3ccc(C[C@H](NC(=O)c4ccc(C(C)(C)C)s4)C(=O)NC(C(=O)O)C(O)c4ccccc4)cc3)nc2)cc1` (some centres unmarked) [Compound 925]: 2500 to 5000 nM; for `CCCCCCCCOc1ccc(-c2cnc(-c3ccc(C[C@H](NC(=O)c4ccc(C(C)(C)C)s4)C(=O)NC(C(=O)O)C(O)c4ccccc4)cc3)nc2)cc1` (some centres unmarked) [Compound 926]: 800 to 2500 nM. On to `CC(C)(C)c1ccc(C(=O)N[C@@H](Cc2ccc(-c3ncc(-c4ccc(OC(F)(F)F)cc4)cn3)cc2)C(=O)NC(C(=O)O)C(O)c2ccccc2)s1` (some centres unmarked) [Compound 927], for which the EC50 lay within 2500 to 5000 nM. As to `CC(C)(C)c1ccc(C(=O)N[C@@H](Cc2ccc(-c3ncc(-c4ccc(OCC(F)(F)F)cc4)cn3)cc2)C(=O)NC(C(=O)O)C(O)c2ccccc2)s1` (some centres unmarked) [Compound 928], the EC50 was 2500 to 5000 nM. Turning to `CC(C)(C)c1ccc(C(=O)N[C@@H](Cc2ccc(-c3ncc(-c4ccc(OC5CCCC5)cc4)cn3)cc2)C(=O)NC(C(=O)O)C(O)c2ccccc2)s1` (some centres unmarked) [Compound 929], the EC50 lay in the range of 5000 to 10000 nM. On to `CC(C)(C)c1ccc(C(=O)N[C@@H](Cc2ccc(-c3ncc(-c4ccc(OC5CC5)cc4)cn3)cc2)C(=O)NC(C(=O)O)C(O)c2ccccc2)s1` (some centres unmarked) [Compound 930], for which the EC50 lay in the range of 5000 to 10000 nM. The same measure for `CC(C)Oc1ccc(-c2cnc(-c3ccc(C[C@H](NC(=O)c4ccc(C(C)(C)C)s4)C(=O)NC(C(=O)O)C(O)c4ccccc4)cc3)nc2)cc1` (some centres unmarked) [Compound 931]: 2500 to 5000 nM; for `CC(C)(C)c1ccc(-c2cnc(-c3ccc(C[C@H](NC(=O)c4ccc(C(C)(C)C)s4)C(=O)NC(C(=O)O)C(O)c4ccccc4)cc3)nc2)cc1` (some centres unmarked) [Compound 932]: 2500 to 5000 nM; for `CCCOc1ccc(-c2cnc(-c3ccc(C[C@H](NC(=O)c4ccc(C(C)(C)C)s4)C(=O)NC(C(=O)O)C(O)c4ccccc4)cc3)nc2)cc1` (some centres unmarked) [Compound 933]: 5000 to 10000 nM.

With `CC(C)COc1ccc(-c2cnc(-c3ccc(C[C@H](NC(=O)c4ccc(C(C)(C)C)s4)C(=O)NC(C(=O)O)C(O)c4ccccc4)cc3)nc2)cc1` (some centres unmarked) [Compound 934], the concentration giving a half-maximal response (EC50) lay in the range of 5000 to 10000 nM.

On to `CCC(CC)Oc1ccc(-c2cnc(-c3ccc(C[C@H](NC(=O)c4ccc(C(C)(C)C)s4)C(=O)NC(C(=O)O)C(O)c4ccccc4)cc3)nc2)cc1` (some centres unmarked) [Compound 935], for which the EC50 was 2500 to 5000 nM.

As to `CC(C)(C)c1ccc(C(=O)N[C@@H](Cc2ccc(-c3ncc(-c4ccc(OCC5CCCCC5)cc4)cn3)cc2)C(=O)NC(C(=O)O)C(O)c2ccccc2)s1` (some centres unmarked) [Compound 936], the EC50 was in the range of 800 to 2500 nM. The same measure for `CC(C)(C)CCCOc1ccc(-c2cnc(-c3ccc(C[C@H](NC(=O)c4ccc(C(C)(C)C)s4)C(=O)NC(C(=O)O)C(O)c4ccccc4)cc3)nc2)cc1` (some centres unmarked) [Compound 937]: 800 to 2500 nM; for `CC(C)(C)c1ccc(C(=O)N[C@@H](Cc2ccc(-c3ncc(-c4ccc(OC5CCCCC5)cc4)cn3)cc2)C(=O)NC(C(=O)O)C(O)c2ccccc2)s1` (some centres unmarked) [Compound 938]: 5000 to 10000 nM. The same measure for `CC(C)(C)c1ccc(C(=O)N[C@@H](Cc2ccc(-c3ncc(-c4ccc(OCCC5CCCC5)cc4)cn3)cc2)C(=O)NC(C(=O)O)C(O)c2ccccc2)s1` (some centres unmarked) [Compound 939]: 2500 to 5000 nM; for `CC(C)(C)c1ccc(C(=O)N[C@@H](Cc2ccc(-c3ncc(-c4ccc(OCC5CCCC5)cc4)cn3)cc2)C(=O)NC(C(=O)O)C(O)c2ccccc2)s1` (some centres unmarked) [Compound 940]: 800 to 2500 nM. As for `CC(C)(C)CCOc1ccc(-c2cnc(-c3ccc(C[C@H](NC(=O)c4ccc(C(C)(C)C)s4)C(=O)NC(C(=O)O)C(O)c4ccccc4)cc3)nc2)cc1` (some centres unmarked) [Compound 941], the 50% effective concentration (EC50) lay in the range of 2500 to 5000 nM. Then `CC(C)CCOc1ccc(-c2cnc(-c3ccc(C[C@H](NC(=O)c4ccc(C(C)(C)C)s4)C(=O)NC(C(=O)O)C(O)c4ccccc4)cc3)nc2)cc1` (some centres unmarked) [Compound 942], with 2500 to 5000 nM; and `CCCCCCOc1ccc(-c2cnc(-c3ccc(C[C@H](NC(=O)c4ccc(C(C)(C)C)s4)C(=O)NC(C(=O)O)C(O)c4ccccc4)cc3)nc2)cc1` (some centres unmarked) [Compound 943], with 800 to 2500 nM. Consider `CC(C)(C)CCCOc1ccc(-c2cnc(-c3ccc(C[C@H](NC(=O)c4ccc(C(C)(C)C)s4)C(=O)N4CC(C(=O)O)C4)cc3)nc2)cc1` [Compound 944], for which the EC50 is < 800 nM.

On to `CC(C)(C)c1ccc(C(=O)N[C@@H](Cc2ccc(-c3ncc(-c4ccc(OCCC5CCCCC5)cc4)cn3)cc2)C(=O)N2CC(C(=O)O)C2)s1` [Compound 945], for which the EC50 is < 800 nM.

Turning to `CCCCCCCOc1ccc(-c2cnc(-c3ccc(C[C@H](NC(=O)c4ccc(C(C)(C)C)s4)C(=O)O)cc3)c(C)c2)cc1` [Compound 946], the EC50 is 2500 to 5000 nM. Consider `CCCCCCCOc1ccc(-c2cnc(-c3ccc(C[C@H](NC(=O)c4ccc(CC)cc4)C(=O)NC(C(=O)O)C(O)c4ccccc4)cc3)nc2)cc1` (some centres unmarked) [Compound 947], for which the EC50 was 800 to 2500 nM. Turning to `CCCCCCCOc1ccc(-c2cnc(-c3ccc(C[C@H](NC(=O)c4ccc(C(F)(F)F)s4)C(=O)NC(C(=O)O)C(O)c4ccccc4)cc3)nc2)cc1` (some centres unmarked) [Compound 948], the concentration giving a half-maximal response (EC50) was 2500 to 5000 nM.
